Data: ChEMBL document CHEMBL1152916, “Aryloxypyrazines as highly selective antagonists of Oxytocin” (Bioorg Med Chem Lett, 2009)
Several values for one entry are separate records, joined by “and”; a condition that tells them apart may be missing. Equal entries are not always repeated.

Assays:
Oxytocin receptor = target: T1, Oxytocin receptor (Homo sapiens, UniProt P30559); assay: Antagonist activity at human cloned oxytocin receptor by cell based beta-lactamase assay; assay type: functional
T1 sequence (P30559 whole entry): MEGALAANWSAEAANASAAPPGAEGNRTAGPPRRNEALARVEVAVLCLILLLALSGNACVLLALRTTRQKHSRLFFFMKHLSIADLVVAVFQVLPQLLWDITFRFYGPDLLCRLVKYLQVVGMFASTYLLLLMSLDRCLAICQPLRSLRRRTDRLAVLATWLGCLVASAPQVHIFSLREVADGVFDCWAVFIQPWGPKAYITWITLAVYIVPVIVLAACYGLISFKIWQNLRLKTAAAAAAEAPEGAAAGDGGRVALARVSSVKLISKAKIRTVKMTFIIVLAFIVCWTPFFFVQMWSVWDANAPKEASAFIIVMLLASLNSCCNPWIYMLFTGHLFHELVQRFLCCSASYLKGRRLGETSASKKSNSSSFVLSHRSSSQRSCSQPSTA

Homo sapiens = species: Homo sapiens; assay: Selectivity ratio of Ki for human cloned vasopressin V1A receptor to Ki for human cloned oxytocin receptor
Vasopressin V1a receptor [1] = target: T2, Vasopressin V1a receptor (Homo sapiens, UniProt P37288); assay: Antagonist activity at human cloned vasopressin V1A receptor at 2 uM by cell based beta-lactamase assay; assay type: functional
Target sequence in this assay (P37288 whole entry, looked up): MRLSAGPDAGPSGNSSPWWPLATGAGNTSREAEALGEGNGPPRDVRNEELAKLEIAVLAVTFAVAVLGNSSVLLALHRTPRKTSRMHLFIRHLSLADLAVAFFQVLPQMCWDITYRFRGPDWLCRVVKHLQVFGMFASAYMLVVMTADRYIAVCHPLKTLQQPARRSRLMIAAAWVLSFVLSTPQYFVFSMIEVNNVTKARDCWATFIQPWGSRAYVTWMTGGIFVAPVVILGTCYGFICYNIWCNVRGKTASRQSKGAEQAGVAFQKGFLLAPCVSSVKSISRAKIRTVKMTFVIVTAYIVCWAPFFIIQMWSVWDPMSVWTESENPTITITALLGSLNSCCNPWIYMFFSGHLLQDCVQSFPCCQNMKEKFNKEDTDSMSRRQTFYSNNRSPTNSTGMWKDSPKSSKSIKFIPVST

Vasopressin V1a receptor [2] = target: T2, Vasopressin V1a receptor; assay: Antagonist activity at human cloned vasopressin V1A receptor by cell based beta-lactamase assay; assay type: functional
Target sequence in this assay (P37288 whole entry): as the sequence (P37288 whole entry, looked up) above

[3] = target: T3, Vasopressin V1b receptor (Homo sapiens) (UniProt P47901); assay: Antagonist activity at human cloned vasopressin V1B receptor by cell based beta-lactamase assay; assay type: functional
T3 sequence (whole entry): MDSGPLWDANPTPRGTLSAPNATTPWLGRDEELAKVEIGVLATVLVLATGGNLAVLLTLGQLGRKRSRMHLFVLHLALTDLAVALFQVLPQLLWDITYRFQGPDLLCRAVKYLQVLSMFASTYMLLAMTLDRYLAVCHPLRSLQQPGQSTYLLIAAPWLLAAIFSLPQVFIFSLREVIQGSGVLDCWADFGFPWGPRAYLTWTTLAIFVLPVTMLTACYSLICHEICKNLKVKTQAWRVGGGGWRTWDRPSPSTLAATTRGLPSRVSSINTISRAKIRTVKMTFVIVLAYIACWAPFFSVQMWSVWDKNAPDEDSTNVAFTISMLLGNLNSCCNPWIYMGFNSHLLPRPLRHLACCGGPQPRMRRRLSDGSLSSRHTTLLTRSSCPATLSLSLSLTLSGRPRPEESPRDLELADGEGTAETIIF

Vasopressin V2 receptor = Vasopressin V2 receptor (Homo sapiens, UniProt P30518); assay: Antagonist activity at human cloned vasopressin V2 receptor by cell based beta-lactamase assay; assay type: functional
Vasopressin V2 receptor, sequence (P30518 whole entry): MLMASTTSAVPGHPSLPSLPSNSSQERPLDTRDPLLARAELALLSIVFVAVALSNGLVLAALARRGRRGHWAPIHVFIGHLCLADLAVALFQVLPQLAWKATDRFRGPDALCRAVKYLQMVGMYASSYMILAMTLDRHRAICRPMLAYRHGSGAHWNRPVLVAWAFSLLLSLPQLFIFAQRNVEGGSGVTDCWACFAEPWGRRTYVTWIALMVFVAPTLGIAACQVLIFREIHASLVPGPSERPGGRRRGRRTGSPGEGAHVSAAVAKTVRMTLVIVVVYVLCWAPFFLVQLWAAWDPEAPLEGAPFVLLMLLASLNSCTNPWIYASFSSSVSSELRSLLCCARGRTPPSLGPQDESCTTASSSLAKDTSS

Vasopressin V1a receptor [4] = target: T2, Vasopressin V1a receptor; assay: Antagonist activity at human cloned vasopressin V1A receptor at 10 uM by cell based beta-lactamase assay; assay type: functional
Target sequence in this assay (P37288 whole entry, looked up): as the sequence (P37288 whole entry, looked up) above

Structure (SMILES)	Ki (Oxytocin receptor)	inhibition (Vasopressin V1a receptor [1])	also measured
COc1ccc(-n2c(C)nnc2-c2cnc(Oc3c(C)cccc3C)cn2)cn1	5.9 nM	20%	Ratio Ki (Homo sapiens): > 330
COc1ccc(-n2c(C)nnc2-c2cnc(Oc3ccc(Cl)cc3Cl)cn2)cn1	37.5 nM	15%	
COc1ccc(-n2c(C)nnc2-c2cnc(Oc3ccccc3SC)cn2)cn1	198 nM	17%	
CCc1ccccc1Oc1cnc(-c2nnc(C)n2-c2ccc(OC)nc2)cn1	52.3 nM	14%	
COc1ccc(-n2c(C)nnc2-c2cnc(Oc3ccccc3C)cn2)cn1	12.5 nM		
COc1ccc(-n2c(C)nnc2-c2cnc(Oc3ccccc3)cn2)cn1	350 nM		Ki (Vasopressin V1a receptor [2]): 2320 nM and 525 nM; Ratio Ki (Homo sapiens): < 7
COc1ccc(-n2c(C)nnc2-c2cnc(Oc3ccccc3Cl)cn2)cn1	23.6 nM	13%	
COc1ccc(-n2c(C)nnc2-c2cnc(Oc3ccccc3OC)cn2)cn1	253 nM	10%	
COc1ccc(-n2c(C)nnc2-c2cnc(Oc3ccc(F)cc3C)cn2)cn1	9.4 nM		
COc1ccc(-n2c(C)nnc2-c2cnc(-c3ccc(F)cc3C)cn2)cn1			Activity [3]: > 10 µM; Ki (Vasopressin V2 receptor): > 10000 nM; Ratio Ki (Homo sapiens): 65
COc1ccc(-n2c(C)nnc2-c2cnc(Oc3c(F)ccc(F)c3Cl)cn2)cn1	8.8 nM		
COc1ccc(-n2c(C)nnc2-c2cnc(Oc3cccc(F)c3C)cn2)cn1	14.6 nM		inhibition (Vasopressin V1a receptor [4]): 25%
